According to patent US20070134233A1, “Compositions and methods relating to organ-, tissue-, and cell-specific antibodies” (Phylonix Pharmaceuticals, Inc., priority 2004, published 2007):
“Also recorded” adds a separate entry of the source.

Legend:
[1] = test system: angiogenic vessel growth in zebrafish embryos; assay: Quantitative in vivo microplate assay using Phy-V001 mAb; conditions: for effect on angiogenic vessel development (discussion summary): 2 dpf and 3 dpf stages; for Vessel Reduction (%) Zebrafish: single dosing, Concentration SU5416 2 μM, Flavopiridol 3 μM
[2] = test system: angiogenic vessel development in zebrafish embryos; assay: Whole mount immunostaining with Phy-V001 of drug-treated embryos; assay type: in vivo; conditions: for vasculature compared to controls: various concentrations; for vasculature compared to controls / ISV staining by Phy-V001: at 3 dpf; for ISV staining by Phy-V001: 48 hours
[3] = test system: vessel formation in zebrafish embryos; assay: In vivo vessel formation assay (Phy-V002 staining); conditions: 2 dpf embryos
Excerpt: In vivo vesselformation assay: Embryos were processed as described in “In vivo EC migration Assay,” supra, and examined by fluorescence microscopy. Images of stained embryos were captured by CCD camera and analyzed by Adobe Photoshop software. Higher magnification (10×) images of control and drug treated embryos at the region where vessel defects were observed were quantitated by morphometric analysis (Signal (S)=[area (pixel) X signal intensity]) using Scion Image program. Percent (%) inhibition in vessel formation can be calculated by the following formula: [formula] Results 1. Quantitative in Vivo EC Proliferation Assay

[4] = test system: Mouse Tumor; conditions: 12 mg/ml/day, dosing frequency 18; cited from earlier work
[5] = test system: zebrafish embryos; assay: Embryo death and body malformation after drug treatment; assay type: in vivo
Method: Assay validation with small molecule drugs: Using the whole mount immunostaining technique described supra, several small molecule drugs were tested. […] Flavopiridol is a cyclin-dependent kinase inhibitor known to inhibit cell proliferation (Senderowicz, Invest. New Drugs 17:313-20, 1999). COL-1 and COL-3 are inhibitors of matrix metalloproteases (MMPs), which are known to play a crucial role in vascular endothelial cell migration (Seftor et al. 2001). During early embryo development (˜12 hpf), many structures including the notochord, the somites, and the heart are beginning to form and these structures directly affect both vasculargenesis and angiogenesis. After 20 hpf, since the DA and the PCV are fully formed, drug effects on vessel formation are less likely to be secondary effects (indirect effects due to damage to the notochord, somites, or heart). Therefore, ˜1 dpf was chosed as the time point to initiate drug treatment. Embryos were incubated with varying concentrations of each drug continuously for 48 hours. Drug effects were examined at 2 dpf and 3 dpf.

[6] = test system: activated endothelial cells in the zebrafish embryo; assay: Quantitative in vivo EC proliferation assay (whole animal Phy-V002 ELISA); conditions: ~20 hpf embryos treated for 28 hours
Method: Quantitative in vivo EC proliferation assay: Embryos were fixed by Dent's fixative (DMSO/methanol=1/3) at room temperature (23+2° C.) for 3 hours, dehydrated to 100% EtOH following standard dehydration procedures. Embryos were then permeabilized, rehydrated, treated with horseradish peroxidase (HRP) suppressor to inhibit endogenous HRP. After treatment with 1 M NH4Cl at room temperature for 3 hours to quench autofluorescence, embryos were then blocked and incubated with Phy-V002 mAb following a standard procedure (see Westerfield, supra). After washing with PBST, embryos were incubated with HRP-conjugated secondary antibody. QuantaBlu (Pierce) was used as the fluorescence enzyme substrate; the stained EC was quantified by measuring the fluorescence units of the enzymatic end product at 315-340 nm (excitation)/370-470 nm (emission) using SPECTRAmax Gemini microplate reader (Molecular Devices).
Drug effect on EC proliferation was calculated by the following formula: [formula]

[7] = test system: zebrafish embryos; assay: Embryo growth inhibition by body length; assay type: in vivo; conditions: 5 μM for 4 days
Method: Drugs cause growth retardation: Many drugs cause growth inhibition. […] 1 dpf embryos are treated with identified “hit” drugs at various concentrations for 4 days. Body length is measured at 5 dpf and plotted against drug concentration. Normal untreated and 0.1% DMSO treated embryos are used as controls. At least 10 embryos are used for each condition.

[8] = test system: EC; conditions: serum of patients treated with flavopiridol; cited from earlier work

For NC(=O)C1=C(O)C[C@@H]2C[C@@H]3Cc4cccc(O)c4C(=O)C3=C(O)[C@]2(O)C1=O [COL-3], the “maximum inhibition of angiogenic vessel growth” value ([1]; 5 μM, at 2 dpf) was roughly 39%, the “inhibition on angiogenic vessel development” value ([1]; 1 to 10 μM, at 3 dpf) was roughly 25% and the “effect on angiogenic vessel development (discussion summary)” value [1] was “significant inhibitory effect”. For the same compound, the “Change in vessel pattern” value ([2]; at 2 dpf, concentration not given) was “caused a loss of a few ISVs” and the “vasculature compared to controls” value [2] was “appeared unchanged”.
For Cc1cc(C)c(/C=C2\C(=O)Nc3ccccc32)[nH]1 [SU5416], the “inhibition in angiogenic vessel growth” value ([1]; 48 hours treatment, at 3 dpf, surviving embryos) was “No significant inhibition”, the inhibition at 15 µM ([1]; Danio rerio, 15 μM, at 2 dpf, read-out: maximum inhibition in vessel growth) was roughly 40.5% and the “Vessel Reduction (%) Zebrafish” value [1] was “˜40.5%”. The “Inhibition of angiogenic vessel development (Phy-V001 staining)” value (“Inhibition … (Phy-V001 staining)” for short) ([2]; 10 μM, 24 hours, at 2 dpf) was “inhibitory effect was not obvious”, the “Inhibition … (Phy-V001 staining)” value ([2]; 15 μM, 24 hours, at 2 dpf) was “dramatic decrease in Phy-V001 staining” and the “Inhibition … (Phy-V001 staining)” value ([2]; 20 μM, at 2 dpf, surviving embryos) was “ISVs were barely detectable”. For the same compound, the “ISV staining by Phy-V001” value ([2]; 10 and 15 μM) was “staining was weaker”, the “vessel formation (cranial vessels and ISVs)” value ([3]; 1 μM) was “partially missing; also recorded: abnormal when compared to control embryos” and the “vessel formation (cranial vessels and ISVs)” value ([3]; 2.5 μM and higher) was “nearly completely absent”. The “Vessel Reduction (%) Mouse Tumor” value [4] was “˜42%” and the “body formation of surviving embryos” value ([5]; 20 μM, at 2 dpf) was “truncated body formation”.
For COc1cc2c(cc1O)CC[C@@H]1[C@@H]2CC[C@]2(C)[C@@H](O)CC[C@@H]12 [2-methoxyestradiol], the “% inhibition in EC proliferation, dose response” value [6] was “% inhibition in EC proliferation increasing proportionally with drug concentration”.
For Cc1[nH]c(/C=C2\C(=O)Nc3ccc(Br)cc32)c(C)c1CCC(=O)O [SU9518], the angiogenic vessel inhibition ([1]; 0.1 μM to 100 μM, at 2 dpf) was “did not result in any angiogenic vessel inhibition”, the “effect on angiogenic vessel development (discussion summary)” value [1] was “did not have any effect” and the “Change in vessel development compared to control” value ([2]; 0.1 μM to 100 μM, at 2 dpf) was “did not cause a change in vessel development”. The “vasculature compared to controls” value [2] was “appeared unchanged”.
CN1CC[C@H](c2c(O)cc(O)c3c(=O)cc(-c4ccccc4Cl)oc23)[C@H](O)C1 [flavopiridol] gave an inhibition at 1 µM ([1]; Danio rerio, 1 μM, at 2 dpf) of 13%, an inhibition at 3 µM ([1]; Danio rerio, 3 μM, at 2 dpf, read-out: maximum inhibition of angiogenic vessel growth) of roughly 27% and an inhibition at 5 µM ([1]; Danio rerio, 5 μM, at 3 dpf) of roughly 17%. The “Vessel Reduction (%) Zebrafish” value [1] was “˜27%”, the “Inhibition … (Phy-V001 staining)” value ([2]; 1 μM, at 2 dpf) was “inhibitory effect was not obvious” and the “Inhibition … (Phy-V001 staining)” value ([2]; 3 μM, at 2 dpf) was “ISV staining in the trunk region decreased”. The “Inhibition … (Phy-V001 staining)” value ([2]; 5 μM, at 2 dpf, surviving embryos) was “dramatic decrease in ISV staining”, the “Inhibition … (Phy-V001 staining)” value ([2]; 7 μM, at 2 dpf, surviving embryos) was “decreased staining in ISVs” and the “ISV staining by Phy-V001” value ([2]; 1, 3, and 5 μM) was “staining intensity appeared weaker”. The “overall embryo growth, body length” value [7] was “caused inhibition of overall embryo growth”, the “Vessel Reduction (%) EC Proliferation” value [8] was “˜32%” and the “Vessel Reduction (%) EC Proliferation, range” value [8] was “(8-70% range)”. For the same compound, the “% inhibition in EC proliferation, dose response” value [6] was “% inhibition in EC proliferation increasing proportionally with drug concentration”, the “body formation of surviving embryos” value ([5]; 5 μM, at 2 dpf) was “truncated body formation” and the embryos died ([5]; 5 μM, at 2 dpf) was roughly 16%. For the same compound, the embryos died ([5]; 7 μM, at 2 dpf) was roughly 20% and the embryos died ([5]; 7 μM, at 3 dpf) was “All the 7 μM flavopiridol treated embryos died”.
